Measured values from patent US20230227508A1, “SPLIT INTEIN-BASED SELECTION FOR PEPTIDE BINDERS” (priority 2020, published 2023).
“Also recorded” adds a separate entry of the source. No end group written: not given here.

Tests used:
[1] = test system: indicator strains from niches of the human microbiome (Table 11); experiment: 96-well antimicrobial profiling, residual growth (OD600); type: cell-based; conditions: for activity against strains of the alimentary tract: Bifidobacterium adolescenits, Bifidobacterium longum, Sellimonas intestinalis, Streptococcus dysgalactiae; for antimicrobial activity (fingerprint, residual growth): set amount of SPE purified RiPP, large panel of indicator strains
[2] = test system: Lactobacillus crispatus; experiment: Antimicrobial activity against Lactobacillus crispatus; type: cell-based; conditions: FIG. 57D
[3] = test system: methicillin-resistant Staphylococcus aureus (MRSA), vancomycin-resistant Enterococcus faecium (VRE), Streptococcus pneumoniae; experiment: Dilution series, dose-dependent killing of MDR clinical isolates; type: cell-based; conditions: for dose-dependent antimicrobial activity against at least one strain: 2-fold serial dilution of SPE-purified peptide from liter scale fermentation
[4] = test system: human microbiome-associated strains (Staphylococcus aureus, Streptococcus infantarius, Streptococcus dysgalactiae, Pediococcus acidilactici …); type: cell-based; conditions: microtiter-purified RiPPs; initial test set of indicator strains
[5] = target: SARS-CoV-2 Spike RBD (residues 328-533) as bait (Severe acute respiratory syndrome coronavirus 2, UniProt P0DTC2)
[6] = target: their target; conditions: read-out: binding to their target; cited from earlier work
[7] = test system: Streptococcus pneumoniae; experiment: Dilution series against Streptococcus pneumoniae; type: cell-based; conditions: serial dilution of SPE-purified peptide

With “GGGWYTAFKLTLAGRCGLCFTCSYECTSNNVHC [AMK-286]” the “activity against strains of the alimentary tract” value (“activity against strains” for short) [1] was “pronounced activity” and the “antimicrobial activity (fingerprint, residual growth)” value [1] was “active”.
In the case of GWYWGNRRDIYGALRYANKRLVPR [AMK-1010], the “antimicrobial activity (fingerprint, residual growth)” value [1] is reported as “active”.
In the case of GGKNGVFKTISHECHLNTWAFLATCCS [AMK-691], the “activity against Lactobacillus crispatus” value [2] is reported as “demonstrated activity”, the “dose-dependent antimicrobial activity against at least one strain” value (“dose-dependent antimicrobial activity” for short) [3] is reported as “Dose-dependent antimicrobial activity” and the zones of inhibition [4] is reported as “varying zones of inhibition”. For the same compound, the “antimicrobial activity (fingerprint, residual growth)” value [1] was “active”.
With GSRWWQGVLPTVSHECRMNSFQHIFTCC [AMK-687] the “activity against Lactobacillus crispatus” value [2] was “even more pronounced activity”, the “antimicrobial activity against MDR clinical isolates (potency, spectrum, in words)” value [3] was “particularly potent and broad-spectrum antimicrobial activity against all four isolates” and the “dose-dependent antimicrobial activity” value [3] was “Dose-dependent antimicrobial activity”. The zones of inhibition [4] was “varying zones of inhibition” and the “antimicrobial activity (fingerprint, residual growth)” value [1] was “active; also recorded: remarkable antimicrobial activity”.
In the case of “VCKYGEWCEIVEI [VCKYGEWCEIVEI (SEQ ID NO: 24)]”, the “specificity for the Spike RBD as bait over Mdm2*” value [5] is reported as 14 fold and the “transcriptional output of circuit” value [5] is reported as “strong transcriptional output”.
In the case of GGDGVMHTLTHECHMNTWQFLLTCC [AMK-417], the “dose-dependent antimicrobial activity” value [3] is reported as “Dose-dependent antimicrobial activity” and the “antimicrobial activity (fingerprint, residual growth)” value [1] is reported as “active”.
In the case of CN[C@H](CC(C)C)C(=O)N[C@H]1C(=O)N[C@@H](CC(N)=O)C(=O)N[C@H]2C(=O)N[C@H]3C(=O)N[C@H](C(=O)N[C@H](C(=O)O)c4cc(O)cc(O)c4-c4cc3ccc4O)[C@H](O)c3ccc(c(Cl)c3)Oc3cc2cc(c3O[C@@H]2O[C@H](CO)[C@@H](O)[C@H](O)[C@H]2O[C@H]2C[C@](C)(N)[C@H](O)[C@H](C)O2)Oc2ccc(cc2Cl)[C@H]1O [vancomycin], the Kd [6] is given as roughly 1 µM.
With GLIYGKYRDVLSGARLVTPPEVALRLVPR [AMK-917] the “antimicrobial activity (fingerprint, residual growth)” value [1] was “active”.
In the case of “GWQTAFRLTMQGRCGGVFTLSYECATPHVSCG [AMK-916]”, the “activity against strains” value [1] is reported as “pronounced activity” and the “antimicrobial activity (fingerprint, residual growth)” value [1] is reported as “active”.
For “microcin J25 (GGAGHVPEYFVGIGTPISFYG; ends and bridges not checked; UniProt Q9X2V7 38-58, looked up)”, the Kd [6] is given as 2 µM.
In the case of “GHVELMNADKVKCKSTSTTKSCSSTSTTSVD [AMK-720]”, the “antimicrobial activity (fingerprint, residual growth)” value [1] is reported as “exceptionally broad antimicrobial activity”.
With “GGWFTAIQLTLAGRCGNWFTGSFECTSNNVKCG [AMK-287]” the “dose-dependent antimicrobial activity” value [3] was “Dose-dependent antimicrobial activity”, the zones of inhibition [4] was “varying zones of inhibition” and the “activity against other Streptococci (strains with significant activity, spectrum)” value ([1]; 5 Streptococcal strains of the panel) was “narrow spectrum of activity”. The “activity against strains” value [1] was “pronounced activity”, the “antimicrobial activity (fingerprint, residual growth)” value [1] was “active” and the “activity against Streptococcus pneumoniae” value [7] was “pronounced activity”.
With “GWLWGSYRDVYGVWHGPRTNFNGAGGSSEWRLVPR [AMK-1009]” the “antimicrobial activity (fingerprint, residual growth)” value [1] was “active”.
